# Measurements: patent US11090313B2, “Methods for inhibiting muscle atrophy” (UNIVERSITY OF IOWA RESEARCH FOUNDATION, priority 2010, dated 2021)
# Entries after “also recorded” stand apart in the source; their conditions may differ.
# Key:
# Assay type in all cases: in vivo, mouse
# [1] = tested on: C57BL/6 mice; assay: Fasting-induced muscle atrophy in mice (i.p. dosing, 24 h fast); conditions: for skeletal muscle weight in fasted mice (fasting-induced muscle atrophy) / fasting blood glucose: i.p. at 0 and 12 h of 24 h fast; for skeletal muscle weight in fasted mice (fasting-induced muscle atrophy): vs vehicle, mg/kg: ursolic acid 200, oleanolic acid 200, metformin 250, tomatidine 50, allantoin 2, tacrine 4, ungerine 2, hippeastrine 2, conessine 2; for fasting blood glucose: mice, mg/kg: metformin 250, ursolic acid 200, hippeastrine 2, conessine 2
# Protocol: The mice were then fasted, and after 12 hours of fasting, the mice received a second dose of the compound or vehicle. After 24 hours of fasting, the blood glucose was measured and muscles were harvested. The data shown in FIGS. 6C-6H are means±SEM from ≤16 mice per condition. […] The effects of metformin and ursolic acid on fasting-induced muscle atrophy were also examined, i.e. the effect of 24 h fast (relative to ad lib feeding) on wet weight of lower hindlimb skeletal muscle (bilateral tibialis anterior (“TA” muscle), gastrocnemius, and soleus; see FIGS. 6E-6G). […] In FIGS. 6E-6H, each data point represents one mouse and the horizontal bars denote the means. In FIGS. 6C-6H, P-values were determined using unpaired t-tests.
# Mice were then fasted, and after 12 hours of fasting, mice received a second dose of ursolic acid, oleanolic acid, or vehicle. After 24 hours of fasting, lower hindlimb skeletal muscles and liver were harvested and weighed.
# To test this, food was withdrawn from mice, and then vehicle, ursolic acid (200 mg/kg) or tomatidine (50 mg/kg) were administered by i.p. injection. Twelve hours later, mice received another i.p. injection of vehicle or the same dose of ursolic acid or tomatidine. Twelve hours later, skeletal muscles were harvested and weighed. […] We next used the same protocol to compare the effects of vehicle (corn oil) and tomatidine (5, 15 and 50 mg/kg).
# [2] = tested on: mice; assay: Immobilization-induced skeletal muscle atrophy model (stapled tibialis anterior); conditions: for immobilization-induced muscle atrophy (weights of immobile vs mobile TA): 2 days before and 6 days after immobilization, ursolic acid and betulinic acid varying doses, naringenin 200 mg/kg, tomatidine 5-200 mg/kg
# Protocol: To test this, a mouse model of immobilization-induced skeletal muscle atrophy was used: mice were administered vehicle (corn oil) or varying doses of ursolic acid (positive control) or betulinic acid via intraperitoneal injection twice a day for two days. One tibialis anterior (TA) muscle was immobilized with a surgical staple, leaving the contralateral mobile TA as an intra-subject control. The vehicle or the same dose of ursolic acid or betulinic acid was continuously administered via i.p. injection twice daily for six days before comparing weights of the immobile and mobile TAs.
# To test this, mice were administered vehicle (corn oil), ursolic acid (200 mg/kg), naringenin (200 mg/kg), or the combination of ursolic acid and naringenin (each at 200 mg/kg) via i.p injection twice a day for two days. One tibialis anterior (TA) muscle was immobilized with a surgical staple, leaving the contralateral mobile TA as an intrasubject control. Vehicle or the same doses of ursolic acid and/or naringenin was continuously administered via i.p. injection twice daily for six days before comparing weights of the immobile and mobile TAs.
# To test this, mice were administered vehicle (corn oil) or tomatidine (50, 100 or 200 mg/kg) via i.p injection twice a day for two days. One tibialis anterior (TA) muscle was immobilized with a surgical staple, leaving the contralateral mobile TA as an intrasubject control. Vehicle or the same doses of tomatidine was administered via i.p. injection twice daily for six days before comparing weights of the immobile and mobile TAs. […] The same protocol was used to compare the effects of vehicle (corn oil) and tomatidine (5, 15 or 50 mg/kg) on immobilization-induced muscle atrophy.
# [3] = tested on: mice; assay: High fat diet with ursolic acid and/or naringenin; conditions: HFD with ursolic acid 0.15% and/or naringenin 0.5% or 1.5%, 5 weeks
# Protocol: To determine this, weight-matched mice were provided ad libitum access to standard (Harlan Teklad formula 7013), high fat diet (HFD; Harlan Teklad formula TD93075), or HFD containing varying concentrations of ursolic acid (0.15%) and/or naringenin (0.5% or 1.5%). After the mice consumed these diets for 5 weeks, fasting blood glucose, total body weight, fat mass, liver weight, grip strength, and skeletal muscle weight was measured.
Structure (SMILES),skeletal muscle weight in fasted mice (fasting-induced muscle atrophy) [1],fasting blood glucose [1],other results
NC(=O)NC1NC(=O)NC1=O (stereo not drawn) [allantoin],increased muscle weight in fasted mice; also recorded: reduce fasting-induced muscle atrophy,–,–
C[C@H]1[C@H]2CC[C@H]3[C@@H]4CC=C5C[C@@H](N(C)C)CC[C@]5(C)[C@H]4CC[C@]23CN1C [conessine],increased muscle weight in fasted mice; also recorded: reduce fasting-induced muscle atrophy,reduce fasting blood glucose,–
CN1CCC2=C[C@@H](O)[C@@H]3OC(=O)c4cc5c(cc4[C@@H]3[C@H]21)OCO5 [hippeastrine],increased muscle weight in fasted mice; also recorded: reduce fasting-induced muscle atrophy,reduce fasting blood glucose,–
"CN(C)C(=N)N=C(N)N [metformin, reference compound]",did not alter muscle weight; also recorded: do not reduce skeletal muscle atrophy,significantly reduced fasting blood glucose,–
O=C1CC(c2ccc(O)cc2)Oc2cc(O)cc(O)c21 (stereo not drawn) [naringenin],–,–,immobilization-induced muscle atrophy (weights of immobile vs mobile TA) ([2]; i.p. twice daily): reduced muscle atrophy; also recorded: reduces immobilization-induced skeletal muscle atrophy; fasting blood glucose in high fat fed mice [3]: partially prevented
"CC1(C)CC[C@]2(C(=O)O)CC[C@]3(C)C(=CC[C@@H]4[C@@]5(C)CC[C@H](O)C(C)(C)[C@@H]5CC[C@]43C)[C@@H]2C1 [oleanolic acid, reference compound]",do not reduce skeletal muscle atrophy,–,–
"Nc1c2c(nc3ccccc13)CCCC2 [tacrine, reference compound]",increased muscle weight in fasted mice; also recorded: reduce fasting-induced muscle atrophy,–,–
C[C@H]1CC[C@]2(NC1)O[C@H]1C[C@H]3[C@@H]4CC[C@H]5C[C@@H](O)CC[C@]5(C)[C@H]4CC[C@]3(C)[C@H]1[C@@H]2C [tomatidine],increased skeletal muscle; also recorded: increased muscle weight in fasted mice; also recorded: reduces fasting-induced muscle atrophy,–,"dose of maximal effect on fasting-induced muscle atrophy ([1]; tomatidine 5, 15 and 50 mg/kg i.p. twice, 24 h fast): 50 mg/kg; dose of maximal inhibition of immobilization-induced muscle atrophy ([2]; i.p. twice daily): 50 mg/kg; potency relative to ursolic acid in immobilization-induced muscle atrophy ([2]; i.p. twice daily): more potent than ursolic acid; immobilization-induced muscle atrophy (weights of immobile vs mobile TA) ([2]; i.p. twice daily): reduced muscle atrophy; also recorded: reduces immobilization-induced muscle atrophy; EC50, reduction of immobilization-induced muscle atrophy ([2]; tomatidine 5, 15 or 50 mg/kg i.p. twice daily): < 5 mg/kg"
CO[C@@H]1C=C2CCN(C)[C@@H]2[C@H]2c3cc4c(cc3C(=O)O[C@H]21)OCO4 [ungerine],increased muscle weight in fasted mice; also recorded: reduce fasting-induced muscle atrophy,–,–
